Test system: striatum of Parkinson's disease (PD) model (6-OHDA) mice
Assay: FSCV/SDBR measurement of tonic dopamine concentration in the striatum after levodopa infusion
Assay type: in vivo
Conditions: FSCV with SDBR, levodopa injected after about 15 minutes flat signal, increases for about 25 minutes, then re-saturates
Text: FIGS. 8A and 8B illustrate results of measuring a neurotransmitter concentration in an in vivo experiment using the neurotransmitter concentration measuring apparatus according to an embodiment of the present disclosure. FIGS. 8A and 8B illustrate examples for confirming SDBR-based tonic dopamine measurement results, which can be confirmed through long-term measurement using standard FSCV data, through in vivo experiments by a neurotransmitter concentration measuring apparatus according to an embodiment of the present disclosure. The graphs 810 to 813 are shown to compare the results measured in the striatum of mice after levodopa infusion. To confirm the practicality of SDBR in the in vivo environment, FSCV results after levodopa infusion of the striatum of healthy mice and the striatum of Parkinson's disease (PD) model (6-OHDA) mice are shown in FIGS. 8A and 8B. Meanwhile, the graphs 810 to 813 of FIG. 8B show the results measured by FSCV in the striatum 15 minutes after levodopa was directly injected into the experimental mice, and the graphs 810 and 811 indicate that the amplitude of the dopamine peak consistently increases independent of drug infusion due to the background subtraction technique.

N[C@@H](Cc1ccc(O)c(O)c1)C(=O)O [levodopa]
estimated dopamine concentration after levodopa infusion (SDBR): 72.4 nM

From patent US20230375502A1, “NEUROTRANSMITTER CONCENTRATION MEASURING APPARATUS FOR PROVIDING SECOND DERIVATIVE-BASED NEUROTRANSMITTER CONCENTRATION MEASUREMENT RESULT OF FAST-SCAN CYCLIC VOLTAMMETRY DATA AND METHOD THEREOF” (Daegu Gyeongbuk Institute of Science and Technology, priority 2022, published 2023)
